Results taken from paper PMC9537177, “A VEGFR targeting peptide-drug conjugate (PDC) suppresses tumor angiogenesis in a TACE model for hepatocellular carcinoma therapy” (Cell Death Discovery, 2022).
Read-outs that look alike come from different tables or passages of the source. Square brackets hold non-standard residues; d marks the D form. Peptide text beside a SMILES is read from it. Aib = CC(C)(N)C(=O)O

Tests used:
[1] = test system: VX2 liver tumor; test: VX2 rabbit liver tumor model with TAE/TACE: tumor growth, necrosis, apoptosis, proliferation, angiogenesis; assay type: in vivo, New Zealand white rabbits; conditions: for mean tumor volume at 7 days after TAE procedure: 0.5 mL lipiodol emulsion into tumor-feeding artery, QR-KLU 4 mg/kg; for mean tumor volume at 7 days after TAE procedure / tumor growth rate (V7/V0 × 100%) / mean tumor necrosis rate: DOX 2 mg/kg, KLU 4 mg/kg; for mean tumor volume at 7 days after TAE procedure / mean tumor volume one day before TAE procedure: MR images, 24 rabbits evenly in four groups; for mean tumor volume at 7 days after TAE procedure / mean tumor necrosis rate / mean tumor volume one day before TAE procedure: mean ± SD; for tumor growth rate (V7/V0 × 100%): 7 days after TAE, NS group 276.4%; for tumor growth rate (V7/V0 × 100%) / mean tumor necrosis rate: QR-KLU 4 mg/kg in lipiodol; for mean proportion of apoptotic cells in tumor (TUNEL) / mean proportion of proliferating cells in tumor (Ki67) / mean tumor necrosis rate: 7 days after treatment; for mean proportion of apoptotic cells in tumor (TUNEL) / mean proportion of proliferating cells in tumor (Ki67): versus NS group; for mean tumor necrosis rate: H&E staining; for mean tumor volume one day before TAE procedure: baseline, V = a*b^2/2, VX2 rabbits
Method: New Zealand white rabbits (2.5-3 kg) were purchased from the Laboratory Animal Center of Tongji Medical College of Huazhong University of Science and Technology (Wuhan, China). All the animal experimental procedures were performed in accordance with the National Institutes of Health Guidelines for the Care and Use of Laboratory Animals and the protocol was approved by the Ethics Committee of Tongji Medical College, Huazhong University of Science and Technology. Blinding was not possible in most animal experiments. The rabbit VX2 liver tumor model was established according to the method reported by Qian K et al.. […] The acquisition parameters of the sequence are as follows: […], TR 2750 ms, TE 65 ms, the field of view 120 mm × 120 mm, Slice thickness 3 mm in the transverse plane, matrix 152 × 152. The multi-vane technique was used to reduce artifacts and improve image quality, acquisition time 3 min […]; […] Seven days after TACE procedure, tumor size was evaluated again by MR scan and the tumor volume was calculated by formula: V = a * b^2/2 (a, long diameter; b, short diameter). And tumor growth rate was calculated by formula: […] Finally, the VX2 rabbits were sacrificed and the tumor tissues were harvested for biochemical analysis and histopathological examination. […] The IHC staining procedures were performed as previously described. Briefly, the sections were blocked in 3% H2O2 for 25 min and then incubated with goat serum for 15 min. Subsequently, the sections were first washed and incubated with anti-VEGF (1:200, Abcam, USA), and anti-CD31 (1:20; Abcam, USA) overnight at 4 °C, and then incubated with second antibody (Abcam, USA) at 37 °C for 50 min. Next, the sections were stained with 3, 3'-diaminobenzidine (DAB, Service bio, Wuhan […] Biotechnology Co., Ltd., China) for 6 min and rinsed and stained in hematoxylin for 30 s. The sections were then dehydrated in gradient alcohol and sealed in neutral resins. VEGF expression was assessed by semiquantitative IHC based on staining intensity and density, the staining intensity was scored as 0 (negative), 1 (weak), 2 (moderate), and 3 (strong), while the staining density was scored on the basis of the percentage of positively stained cells: 0 (0%), 1 (1-25%), 2 (26-50%), 3 (51-75%), and 4 (76-100%). The total VEGF IHC score was calculated by multiplying the intensity score by the density score. Microvessel density (MVD) was calculated according to the method developed by Weidner et al.

[2] = test system: Huh7 cells; test: Cell viability (CCK8) assay, Huh7; assay type: cell-based, human; conditions: for IC50: CCK8, 48 h treatment in medium with 5% FBS, absorbance 450 nm, mean ± SD, read-out: IC50, cytotoxicity in Huh7 cells
Method: (§1) All reagents were purchased from Gibco. All these cells were routinely tested for mycoplasma contamination and tested negative and maintained in a humidified incubator containing 5% CO2 at 37 °C. Cell viability for different cell lines were measured by cell counting kit-8 (CCK8) assays. The cells were incubated on a 96-well plate for 24 h in growth medium prior to drug treatment. […] Then CCK8 (10 μL) was added and the cells were incubated for 1 h at 37 °C with 5% CO2. Absorbance was measured with a microplate reader (Bio-Rad) at a wavelength of 450 nm.

[3] = test system: HUVEC cells; test: Wound-healing assay of HUVEC cells; assay type: cell-based, human; conditions: 24 h
Method: Wound-healing assay was performed according to the protocols reported by Liang et al.. Briefly, HUVEC cells were plated into 12-well plate and grown to create a confluent monolayer. The monolayer was grazed in a straight line to create a “scratch” with a pipette tip. Markings were created close to the scratch to be used as reference points. Then cells were treated with different peptides for 24 h at 37 °C. Images were collected with a Leica DFC480 camera on a phase-contrast microscope equipped with a 10 × objective at room temperature. The free area of the wound was measured by image software. Supplementary Figure S1. Wound healing assay to detect the cell migration influenced by different peptides.

[4] = Therapeutic safety in VX2 tumor-bearing rabbits (organ H&E, serum biochemistry); conditions: before and 1, 3, 7 days after treatment; 4 mg/kg in lipiodol via TAE
Method: Twenty-four VX2 tumor-burdened rabbits were evenly divided into four groups. After fasting for 12 h, the rabbits were anesthetized by intravenous injection of pentobarbital sodium solution (2 wt.%, 30 mg/kg). The rabbit’s right femoral artery was dissected and a 4-F Cobra catheter (Cook, Inc., Bloomington, Indiana) was inserted into the celiac artery, hepatic arteriography was then performed under the guidance of digital subtraction angiography (DSA), and a 2.7-F coaxial microcatheter (Terumo, Tokyo, Japan) was super-selectively inserted into the tumor donor branch subsequently. The emulsion of drugs and lipiodol were slowly injected into the tumor-feeding artery through the above microcatheter at a speed of 0.5 mL/min. […] After obtaining all DSA images, the sheaths and catheters were removed.
Seven days after treatment, the liver tumors, hearts, lungs, kidneys and spleens were harvested and fixed in 4% phosphate-buffered paraformaldehyde, the specimens were embedded in paraffin blocks and cut into 5‐μm‐thick sections. Following the manufacturer’s guidelines, the sections were stained with haematoxylin and eosin (H&E) for the evaluation of organ toxicity and tumor necrosis, Ki-67 staining and transfer-mediated dUTP nick end labeling (TUNEL) technique were used to detect tumor proliferation and apoptosis, respectively.
Blood samples were collected before treatment and at 1, 3, 7 days after treatment. The blood samples were stood at room temperature for 30 min, and the serum was obtained by centrifugation (room temperature, 8000 rpm, 10 min) for assessment of alanine aminotransferase (ALT), aspartate aminotransferase (AST), total bilirubin (TBIL) and creatinine (CREA). The assays were performed using the commercially ready-made kits following the manufacturers’ instructions.

[5] = test system: HUVEC cells; test: Cell viability (CCK8) assay, HUVEC; assay type: cell-based, human
Method: as §1

[6] = test system: HUVEC cells; test: Annexin V-FITC/PI cell apoptosis assay, HUVEC; assay type: cell-based, human; conditions: 80 μM, 24 h, Annexin V-PI FACS
Method: The improved proapoptotic activity of QR-KLU was further confirmed by Annexin V-PI staining through FACS. Viable cells, early apoptotic cells, necrotic cells, late apoptotic cells were represented by Q4, Q3, Q2 and Q1 respectively. […] Besides, QR-KLU induced cell apoptosis in a dose-dependent manner. […] The percentage of apoptotic cells in KLU peptide at 20 μM were about 25% in both Huh7 cells and HUVEC cells.
(§2) The apoptosis assay was performed according to the manufacturer’s instructions using an Annexin V: Fluorescein Isothiocyanate (FITC) Apoptosis Detection Kit I (BD Pharmingen™). Briefly, Huh 7 or HUVEC cells were seeded in a 12-well plate and allowed to grow for 24 h in medium with 10% FBS. Then, the cells were treated with the different peptides in medium with 5% FBS for 24 h’ incubation. The cells were harvested with 0.25% trypsin/EDTA, washed twice with PBS and suspended in 1 × binding buffer. The suspended cells were treated with FITC-labeled Annexin V and propidium iodide (PI) as the protocol indicated and then analyzed by flow cytometry to determine the apoptotic cells. The cells with positive fluorescence intensity signals for both FITC and PI were used for the apoptotic cell count.
Supplementary Figure S2. Cell apoptosis of HUVEC induced by different peptides. HUVEC cells were treated with PBS, 80μM QR, 20μM KLU, 5μM QR-KLU, 10μM QR-KLU for 24 hours before detection by FACS.

[7] = test system: Huh 7 cells; conditions: 80 μM, 24 h, Annexin V-PI FACS
Method: Viable cells, early apoptotic cells, necrotic cells, late apoptotic cells were represented by Q4, Q3, Q2 and Q1 respectively.
as §2

Row | Compound | mean tumor volume at 7 days after TAE procedure [1] [mm^3] | tumor growth rate (V7/V0 × 100%) [1] | mean proportion of apoptotic cells in tumor (TUNEL) [1] | mean proportion of proliferating cells in tumor (Ki67) [1] | mean tumor necrosis rate [1] | mean tumor volume one day before TAE procedure [1] [mm^3] | IC50 ([2]; Homo sapiens, Huh-7) [µM] | cell migration of HUVEC (wound epithelial gap) ([3]; 20 μM) | IC50 [2] [µM] | liver and renal toxicity (ALT, AST, TBIL, CREA in serum) [4] | IC50 ([5]; CCK8, 48 h treatment in medium with 5% FBS, absorbance 450 nm, mean ± SD, read-out: IC50, cytotoxicity in HUVEC cells) [µM] | cell proliferation or migration of HUVEC (wound healing) ([3]; 80 μM) | proapoptotic effect in HUVEC cells [6] | cellular toxicity in Huh7 cells ([2]; CCK8, 48 h, up to 80 μM) | cellular toxicity in HUVEC cells ([5]; CCK8, 48 h, up to 80 μM) | proapoptotic effect in Huh 7 cells [7]
1 | COc1cccc2c1C(=O)c1c(O)c3c(c(O)c1C2=O)C[C@@](O)(C(=O)CO)C[C@@H]3O[C@H]1C[C@H](N)[C@H](O)[C@H](C)O1 [DOX, doxorubicin] | 1382.9 ± 563.7 | significantly lower than that of the NS group | significantly higher than that in NS group | significantly lower than that in NS group | 81.4% ± 2.3 | 889.0 ± 317.7 | 0.243 ± 0.076 | – | – | – | – | – | – | – | – | –
2 | CC(=O)N[C@@H](CCCCN)C(=O)N[C@@H](CC(C)C)C(=O)NC(C)(C)C(=O)N[C@@H](CCCCN)C(=O)N[C@@H](CC(C)C)C(=O)NC(C)(C)C(=O)N[C@@H](CCCCN)C(=O)N[C@@H](CCCCN)C(=O)N[C@@H](CC(C)C)C(=O)NC(C)(C)C(=O)N[C@@H](CCCCN)C(=O)N[C@@H](CC(C)C)C(=O)NC(C)(C)C(=O)N[C@@H](CCCCN)C(N)=O [KLU] (Ac-KL[Aib]KL[Aib]KKL[Aib]KL[Aib]K-NH2) | 1321.4 ± 210.4 | significantly lower than that of the NS group | significantly higher than that in NS group | significantly lower than that in NS group | 79.5% ± 8.0 | 991.8 ± 114.2 | – | the wound epithelial gap was unchanged or even bigger | 36.3 ± 2.7 | no significant liver or renal toxicity | 33.8 ± 0.98 | – | – | – | – | –
3 | Ac-QKRKRKKSRYKS-NH2 [QR] | – | – | – | – | – | – | – | – | – | – | – | not affected | didn’t show obvious proapoptotic effect | negligible toxicity | negligible toxicity | didn’t show obvious proapoptotic effect
